Test results reported in PMC8550792, “Evolution of kinase polypharmacology across HSP90 drug discovery” (Cell Chemical Biology, 2021).

What was measured:
[1] = biological target: ABL1 (Homo sapiens, UniProt P00519); experiment: NanoBRET intracellular target engagement
[2] = biological target: ABL2 (Homo sapiens, UniProt P42684); experiment: NanoBRET intracellular target engagement
ABL2, sequence (P42684 whole entry): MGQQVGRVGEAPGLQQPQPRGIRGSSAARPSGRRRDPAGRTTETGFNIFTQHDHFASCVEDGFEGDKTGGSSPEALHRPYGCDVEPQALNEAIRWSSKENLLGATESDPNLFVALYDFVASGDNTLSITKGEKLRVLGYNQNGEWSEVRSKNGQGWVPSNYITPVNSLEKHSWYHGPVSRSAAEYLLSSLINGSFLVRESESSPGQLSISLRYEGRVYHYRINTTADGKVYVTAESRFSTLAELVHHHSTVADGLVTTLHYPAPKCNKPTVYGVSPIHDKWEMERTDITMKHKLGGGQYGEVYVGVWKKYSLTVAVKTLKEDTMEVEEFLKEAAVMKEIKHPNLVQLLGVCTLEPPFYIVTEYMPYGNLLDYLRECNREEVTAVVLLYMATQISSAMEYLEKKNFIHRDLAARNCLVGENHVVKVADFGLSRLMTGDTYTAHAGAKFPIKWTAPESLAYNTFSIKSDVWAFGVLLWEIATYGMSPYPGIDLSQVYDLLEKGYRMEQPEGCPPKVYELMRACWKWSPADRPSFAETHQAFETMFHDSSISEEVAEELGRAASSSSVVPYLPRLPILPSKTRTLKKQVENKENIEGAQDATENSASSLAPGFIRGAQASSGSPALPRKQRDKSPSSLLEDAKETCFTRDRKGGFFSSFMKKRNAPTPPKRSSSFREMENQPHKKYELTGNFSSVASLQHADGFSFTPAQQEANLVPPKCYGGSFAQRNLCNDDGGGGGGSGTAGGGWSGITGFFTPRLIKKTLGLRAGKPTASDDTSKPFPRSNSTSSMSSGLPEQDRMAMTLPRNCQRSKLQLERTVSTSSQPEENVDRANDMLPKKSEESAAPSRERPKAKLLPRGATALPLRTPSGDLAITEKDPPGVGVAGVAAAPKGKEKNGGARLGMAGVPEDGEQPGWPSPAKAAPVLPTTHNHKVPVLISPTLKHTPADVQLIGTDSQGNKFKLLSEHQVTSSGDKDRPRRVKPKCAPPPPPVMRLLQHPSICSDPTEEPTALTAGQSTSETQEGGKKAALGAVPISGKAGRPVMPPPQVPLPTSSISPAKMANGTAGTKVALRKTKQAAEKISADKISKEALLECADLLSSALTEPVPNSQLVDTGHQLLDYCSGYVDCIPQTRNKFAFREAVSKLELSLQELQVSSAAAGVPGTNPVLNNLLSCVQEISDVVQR

ABL1, sequence (P00519 whole entry): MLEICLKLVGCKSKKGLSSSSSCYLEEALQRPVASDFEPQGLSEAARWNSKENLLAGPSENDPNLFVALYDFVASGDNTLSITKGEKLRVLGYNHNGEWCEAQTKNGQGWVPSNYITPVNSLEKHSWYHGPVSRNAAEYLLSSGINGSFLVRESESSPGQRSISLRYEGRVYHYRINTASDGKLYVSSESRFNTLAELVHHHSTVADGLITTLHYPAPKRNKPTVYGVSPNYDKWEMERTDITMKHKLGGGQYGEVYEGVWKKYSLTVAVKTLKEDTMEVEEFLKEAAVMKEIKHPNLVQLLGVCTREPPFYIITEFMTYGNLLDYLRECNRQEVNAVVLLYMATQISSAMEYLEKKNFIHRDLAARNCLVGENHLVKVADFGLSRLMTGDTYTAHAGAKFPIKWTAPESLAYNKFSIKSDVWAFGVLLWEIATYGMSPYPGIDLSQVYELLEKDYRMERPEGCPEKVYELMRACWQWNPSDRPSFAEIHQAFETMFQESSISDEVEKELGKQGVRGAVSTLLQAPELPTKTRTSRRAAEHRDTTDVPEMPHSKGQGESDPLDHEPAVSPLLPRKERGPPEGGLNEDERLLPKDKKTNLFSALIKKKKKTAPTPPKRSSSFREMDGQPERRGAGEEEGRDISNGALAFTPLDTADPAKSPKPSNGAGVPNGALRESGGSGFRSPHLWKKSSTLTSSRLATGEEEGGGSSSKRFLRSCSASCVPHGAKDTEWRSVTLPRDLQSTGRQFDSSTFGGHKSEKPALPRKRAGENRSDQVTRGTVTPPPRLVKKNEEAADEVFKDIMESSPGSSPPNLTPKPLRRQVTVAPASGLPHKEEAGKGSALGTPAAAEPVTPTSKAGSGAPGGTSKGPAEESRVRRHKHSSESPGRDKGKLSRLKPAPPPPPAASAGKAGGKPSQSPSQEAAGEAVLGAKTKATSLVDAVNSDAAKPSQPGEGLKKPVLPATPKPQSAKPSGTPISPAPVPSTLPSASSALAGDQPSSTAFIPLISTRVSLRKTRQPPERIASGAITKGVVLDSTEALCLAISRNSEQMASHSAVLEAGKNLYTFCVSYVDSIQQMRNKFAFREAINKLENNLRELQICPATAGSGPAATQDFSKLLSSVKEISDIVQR

## CC(C)c1cc(-c2n[nH]c(=O)n2-c2ccc3c(ccn3C)c2)c(O)cc1O [Ganetespib]
[1]
  EC50: 82.9 µM
[1]; HEK293, read-out: %Normalized Bret Response, ABL1 NanoBRET, HEK293, Drug Conc. 0.0001 M
  remaining activity at 100 µM: 41.3%
[2]
  EC50: 21.1 µM
[2]; HEK293, read-out: %Normalized Bret Response, ABL2 NanoBRET, HEK293, Drug Conc. 0.0001 M
  remaining activity at 100 µM: 22.6%
